What is called IC50 is the point on the concentration scale where inhibition reaches its midpoint. A higher IC50 goes with weaker potency. As usually defined, the inhibition is the change of the read-out against control, counted positive when it falls.

In one assay the target is T1, KRas^G12C (Homo sapiens, UniProt P01116, G12C).
T1 construct: Biotinylated KRas (corresponding to amino acids 1-169, produced at Accelegan Inc.); biotin (biotinylated); purchased Accelegan Inc
As to the kind of experiment: KRas binding assay (TR-FRET tracer displacement), KRas G12C. As to conditions: TR-FRET tracer displacement, KRas G12C. On the technique in general: TR-FRET usually uses a lanthanide donor and a delayed reading to cut background.

Assay [1] concerns KRas-mediated phosphorylation of ERK in HCT116 cells. As to the kind of experiment: Inhibition of KRas-mediated phosphorylation of ERK (Cisbio HTRF pERK), HCT116 cells. Format: cell-based. Particulars: Homo sapiens, HCT-116, 3 h, single point, 100 nM compound, 3 hrs. In outline: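 Following a 3-hr exposure of cells to serially diluted compound (from 10 uM, 3-fold, 10 doses), cold lysis for 40 mins preceded a 2-hr room-temperature HTRF immunoassay for phosphorylated ERK.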

In the next assay the target is T2, KRas^G12R (Homo sapiens, UniProt P01116, G12R).
T2 construct: Biotinylated KRas (corresponding to amino acids 1-169, produced at Accelegan Inc.); biotin (biotinylated); purchased Accelegan Inc
T2 sequence (P01116 1-169 isoform P01116-2 G12R): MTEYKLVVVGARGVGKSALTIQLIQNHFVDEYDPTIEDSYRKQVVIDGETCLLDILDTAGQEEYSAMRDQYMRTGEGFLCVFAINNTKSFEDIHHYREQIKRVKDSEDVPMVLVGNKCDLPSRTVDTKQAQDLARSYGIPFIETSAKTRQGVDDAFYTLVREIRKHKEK
In words: KRas binding assay (TR-FRET tracer displacement), KRas G12R.

In a further assay the target is T3, KRas^Q61H (Homo sapiens, UniProt P01116, Q61H).
T3 construct: Biotinylated KRas (corresponding to amino acids 1-169, produced at Accelegan Inc.); biotin (biotinylated); purchased Accelegan Inc
T3 sequence (P01116 1-169 isoform P01116-2 Q61H): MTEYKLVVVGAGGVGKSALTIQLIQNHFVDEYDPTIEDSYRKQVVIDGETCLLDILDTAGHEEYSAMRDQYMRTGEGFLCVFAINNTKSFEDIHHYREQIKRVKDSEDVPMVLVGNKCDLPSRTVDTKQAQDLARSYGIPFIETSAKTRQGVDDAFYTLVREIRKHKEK
As to the kind of experiment: KRas binding assay (TR-FRET tracer displacement), KRas Q61H. As to conditions: TR-FRET tracer displacement, KRas Q61H.

The test system of assay [2] is KRas-mediated phosphorylation of ERK in H727 cells. As to the kind of experiment: Inhibition of KRas-mediated phosphorylation of ERK (Cisbio HTRF pERK), H727 cells. As to conditions: Homo sapiens; for inhibition at 0.1 µM: NCI-H727, 3 h, single point, 100 nM compound, 3 hrs, H727 cells; for IC50: NCI-H727, H727 cells, HTRF pERK. The class given is cell-based. In outline: (§1)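 Cells were seeded at 6,000 per well and treated for 3 hrs with compound in a 10-dose, 3-fold series from 10 uM (0.8% final DMSO), with 0.2 uM Trametinib as Min control. Lysates made at 4° C over 40 mins were incubated 2 hrs at room temperature with d2- and Cryptate-labelled antibodies, then read by HTRF.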

Another assay concerns the target T4, KRas^G12A (Homo sapiens, UniProt P01116, G12A).
T4 construct: Biotinylated KRas (corresponding to amino acids 1-169, produced at Accelegan Inc.); biotin (biotinylated); purchased Accelegan Inc
In words: KRas binding assay (TR-FRET tracer displacement), KRas G12A. Particulars: TR-FRET tracer displacement, KRas G12A.

A further assay concerns the target T5, KRas^WT (Homo sapiens, UniProt P01116).
T5 construct: Biotinylated KRas (corresponding to amino acids 1-169, produced at Accelegan Inc.); biotin (biotinylated); purchased Accelegan Inc
As to the kind of experiment: KRas binding assay (TR-FRET tracer displacement), KRas WT. Particulars: TR-FRET tracer displacement, KRas WT.

In the next assay the target is T6, KRas^G12S (Homo sapiens, UniProt P01116, G12S).
T6 construct: Biotinylated KRas (corresponding to amino acids 1-169, produced at Accelegan Inc.); biotin (biotinylated); purchased Accelegan Inc
T6 sequence (P01116 1-169 isoform P01116-2 G12S): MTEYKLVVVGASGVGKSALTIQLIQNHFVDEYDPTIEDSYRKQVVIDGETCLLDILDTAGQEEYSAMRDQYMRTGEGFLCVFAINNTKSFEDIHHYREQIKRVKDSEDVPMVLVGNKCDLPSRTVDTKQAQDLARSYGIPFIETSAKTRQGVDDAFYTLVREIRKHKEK
In words: KRas binding assay (TR-FRET tracer displacement), KRas G12S. As to conditions: TR-FRET tracer displacement, KRas G12S.

A further assay concerns the target T7, KRas^G12V (Homo sapiens, UniProt P01116, G12V).
T7 construct: Biotinylated KRas (corresponding to amino acids 1-169, produced at Accelegan Inc.); biotin (biotinylated); purchased Accelegan Inc
In words: KRas binding assay (TR-FRET tracer displacement), KRas G12V.

The target of the next assay is T8, KRas^G12D (Homo sapiens, UniProt P01116, G12D).
T8 construct: Biotinylated KRas (corresponding to amino acids 1-169, produced at Accelegan Inc.); biotin (biotinylated); purchased Accelegan Inc
T8 sequence (P01116 1-169 isoform P01116-2 G12D): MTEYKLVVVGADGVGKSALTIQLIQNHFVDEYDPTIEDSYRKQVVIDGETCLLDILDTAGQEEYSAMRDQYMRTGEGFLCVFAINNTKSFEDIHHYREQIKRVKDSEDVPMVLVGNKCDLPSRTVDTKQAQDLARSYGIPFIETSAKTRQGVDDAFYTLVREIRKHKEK
In words: KRas binding assay (TR-FRET tracer displacement), KRas G12D.

For assay [3], the system named is KRas-mediated phosphorylation of ERK in AsPC-1 cells. In words: Inhibition of KRas-mediated phosphorylation of ERK (Cisbio HTRF pERK), AsPC-1 cells. The class given is cell-based. As to conditions: Homo sapiens; for inhibition at 0.1 µM: ASPC1, 3 h, single point, 100 nM compound, 3 hrs, AsPC-1 cells; for IC50: ASPC1, AsPC-1 cells, HTRF pERK. The method in brief:
as §1

The subject of assay [4] is KRas-mediated phosphorylation of ERK in H460 cells. As to the kind of experiment: Inhibition of KRas-mediated phosphorylation of ERK (Cisbio HTRF pERK), H460 cells. As to conditions: Homo sapiens, NCI-H460, 3 h, single point, 100 nM compound, 3 hrs. Format: cell-based. In outline: as §1
The next assay concerns the target T9, KRas^G13D (Homo sapiens, UniProt P01116, G13D).
T9 construct: Biotinylated KRas (corresponding to amino acids 1-169, produced at Accelegan Inc.); biotin (biotinylated); purchased Accelegan Inc
As to the kind of experiment: KRas binding assay (TR-FRET tracer displacement), KRas G13D. As to conditions: TR-FRET tracer displacement, KRas G13D.

Bounds are passed on as bounds.

T1 sequence (P01116 1-169 isoform P01116-2 G12C): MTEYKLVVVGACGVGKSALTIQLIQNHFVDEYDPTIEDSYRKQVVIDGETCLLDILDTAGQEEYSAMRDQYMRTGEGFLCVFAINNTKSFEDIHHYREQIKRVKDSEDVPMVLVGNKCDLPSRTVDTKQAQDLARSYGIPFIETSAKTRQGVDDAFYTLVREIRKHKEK
T7 sequence (P01116 1-169 isoform P01116-2 G12V): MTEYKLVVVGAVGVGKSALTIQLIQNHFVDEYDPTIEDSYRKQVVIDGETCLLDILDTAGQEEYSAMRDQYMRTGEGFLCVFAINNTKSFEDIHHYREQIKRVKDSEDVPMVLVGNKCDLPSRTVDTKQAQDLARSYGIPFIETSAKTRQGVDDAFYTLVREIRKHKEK
T4 sequence (P01116 1-169 isoform P01116-2 G12A): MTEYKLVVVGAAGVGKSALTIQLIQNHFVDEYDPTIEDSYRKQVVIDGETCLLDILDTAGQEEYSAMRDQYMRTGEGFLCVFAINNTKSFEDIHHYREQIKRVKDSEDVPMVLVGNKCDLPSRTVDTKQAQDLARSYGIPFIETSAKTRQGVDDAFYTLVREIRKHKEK
T9 sequence (P01116 1-169 isoform P01116-2 G13D): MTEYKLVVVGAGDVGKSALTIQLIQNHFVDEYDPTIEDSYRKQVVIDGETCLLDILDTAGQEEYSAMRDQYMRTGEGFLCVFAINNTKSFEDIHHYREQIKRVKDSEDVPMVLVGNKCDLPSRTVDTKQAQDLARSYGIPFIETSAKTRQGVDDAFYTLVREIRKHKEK
T5 sequence (P01116 1-169 isoform P01116-2): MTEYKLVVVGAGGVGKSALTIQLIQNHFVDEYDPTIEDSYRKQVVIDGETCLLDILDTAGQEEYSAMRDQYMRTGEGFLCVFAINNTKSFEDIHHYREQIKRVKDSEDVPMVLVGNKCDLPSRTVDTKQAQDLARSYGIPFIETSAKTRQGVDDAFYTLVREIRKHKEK

Regarding `Cc1cc2[nH]nnc2c(-c2ncc3c(N4CCC[C@@](C)(O)C4)nc(OCC45CCCN4CCC5)nc3c2F)c1C` [Example 734, (3R)-1-(7-(5,6-dimethyl-1H-benzo[d][1,2,3]triazol-4-yl)-8-fluoro-2-((hexahydro-1H-pyrrolizin-7a-yl)methoxy)pyrido[4,3-d]pyrimidin-4-yl)-3-methylpiperidin-3-ol], the half-inhibitory concentration (IC50) stood at 10600 nM at KRas^G12C; 20600 nM at KRas^G12R; 11400 nM at KRas^Q61H; 10300 nM at KRas^G12A; 10500 nM on KRas^WT; 11600 nM at KRas^G12S. Besides, the half-maximal inhibitory concentration (IC50) on KRas^G12V was determined as 11600 nM; on KRas^G12D it was 8110 nM; at KRas^G13D it was 10500 nM. Further, the inhibition at 0.1 µM was -13% in assay [1], -3% in [2], -18% in [3] and -3% in assay [4].

Turning to `C[C@@]1(O)CCCN(c2nc(OCC34CCCN3CCC4)nc3c(F)c(-c4ccc(F)c5sc(N)nc45)ncc23)C1` [Example 735, (R)-1-(7-(2-amino-7-fluorobenzo[d]thiazol-4-yl)-8-fluoro-2-((hexahydro-1H-pyrrolizin-7a-yl)methoxy)pyrido[4,3-d]pyrimidin-4-yl)-3-methylpiperidin-3-ol], the IC50 on KRas^G12C is 3130 nM; on KRas^G12R, 3960 nM; on KRas^Q61H, 3530 nM; on KRas^G12A, 2680 nM; on KRas^WT, 1840 nM; at KRas^G12S, 2770 nM. Besides, the IC50 on KRas^G12V is 2590 nM; on KRas^G12D, 1980 nM; at KRas^G13D, 2140 nM. The inhibition at 0.1 µM in assay [1] is -2%; in [2], -31%; in assay [3], 14%; in assay [4], 5%.

Turning to `Oc1cc(-c2ncc3c(N4C[C@@H]5C[C@H](C4)[C@H](O)C5)nc(OC[C@@]45CCCN4C[C@H](F)C5)nc3c2F)c2ccccc2c1Cl` [Example 764, (1R,5R,6R)-3-(7-(4-chloro-3-hydroxynaphthalen-1-yl)-8-fluoro-2-(((2R,7aS)-2-fluorohexahydro-1H-pyrrolizin-7a-yl)methoxy)pyrido[4,3-d]pyrimidin-4-yl)-3-azabicyclo[3.2.1]octan-6-ol], the IC50 at KRas^G12C was 2390 nM; on KRas^G12R it was 3120 nM; at KRas^Q61H, 3930 nM; in [2] it was over 10000 nM; at KRas^G12A, 2410 nM; at KRas^WT it was 3090 nM. In addition, the IC50 at KRas^G12S was 1690 nM; on KRas^G12V it was 1660 nM; on KRas^G12D it was 5530 nM; in [3], over 10000 nM; at KRas^G13D, 2410 nM.

As for `Cc1c(Cl)cc2[nH]ncc2c1-c1ncc2c(N3CCC[C@]4(C3)NC(=O)NC4=O)nc(OCC34CCCN3CCC4)nc2c1F` [Example 766, (5R)-7-(7-(6-chloro-5-methyl-1H-indazol-4-yl)-8-fluoro-2-((hexahydro-1H-pyrrolizin-7a-yl)methoxy)pyrido[4,3-d]pyrimidin-4-yl)-1,3,7-triazaspiro[4.5]decane-2,4-dione], the IC50 on KRas^G12C is 927 nM; at KRas^G12R it was 1880 nM; at KRas^Q61H it was 954 nM; in assay [2], over 10000 nM; on KRas^G12A, 1160 nM; on KRas^WT, 980 nM. Further, the IC50 on KRas^G12S is 824 nM; on KRas^G12V it was 988 nM; at KRas^G12D, 2200 nM; in assay [3], over 10000 nM; at KRas^G13D, 1210 nM.

For `CCc1cccc2cc3[nH]ncc3c(-c3ncc4c(N5CCCC6(CC(=O)N6)C5)nc(OC[C@@]56CCCN5C[C@H](F)C6)nc4c3F)c12` (stereo partly drawn) [Example 771, 6-(7-(5-ethyl-1H-benzo[f]indazol-4-yl)-8-fluoro-2-(((2R,7aS)-2-fluorohexahydro-1H-pyrrolizin-7a-yl)methoxy)pyrido[4,3-d]pyrimidin-4-yl)-1,6-diazaspiro[3.5]nonan-2-one], the IC50 on KRas^G12C amounted to 8 nM; at KRas^G12R, 4 nM; on KRas^Q61H it was 7 nM; in assay [2], 897 nM; at KRas^G12A, 10 nM; on KRas^WT it was 12 nM. In addition, the IC50 on KRas^G12S was determined as 9 nM; at KRas^G12V, 4 nM; on KRas^G12D it was 5 nM; in assay [3], 1370 nM; at KRas^G13D, 11 nM.

With `O=C1NC(=O)[C@]2(CCCN(c3nc(OCC45CCCN4CCC5)nc4c(F)c(-c5c(C6CC6)c(Cl)cc6[nH]ncc56)ncc34)C2)N1` [Example 779, (5R)-7-(7-(6-chloro-5-cyclopropyl-1H-indazol-4-yl)-8-fluoro-2-((hexahydro-1H-pyrrolizin-7a-yl)methoxy)pyrido[4,3-d]pyrimidin-4-yl)-1,3,7-triazaspiro[4.5]decane-2,4-dione], the IC50 on KRas^G12C is under 2 nM; on KRas^G12R, 2 nM; on KRas^Q61H it was under 2 nM; in [2], 9390 nM; on KRas^G12A, under 2 nM; on KRas^WT, under 2 nM. Also, the IC50 is under 2 nM at KRas^G12S; under 2 nM on KRas^G12V; 2 nM at KRas^G12D; over 10000 nM in assay [3]; under 2 nM on KRas^G13D.

As to `Oc1cc(-c2ncc3c(N4C[C@@H]5C[C@H](C4)[C@H](O)C5)nc(OC[C@@]45CCCN4C[C@H](F)C5)nc3c2F)c2ccccc2c1C(F)(F)F` [Example 782, (1R,5R,6R)-3-(8-fluoro-2-(((2R,7aS)-2-fluorohexahydro-1H-pyrrolizin-7a-yl)methoxy)-7-(3-hydroxy-4-(trifluoromethyl)naphthalen-1-yl)pyrido[4,3-d]pyrimidin-4-yl)-3-azabicyclo[3.2.1]octan-6-ol], the IC50 at KRas^G12C stood at 2780 nM; at KRas^G12R, 3740 nM; at KRas^Q61H, 4050 nM; on KRas^G12A it was 4370 nM; at KRas^WT it was 4220 nM; on KRas^G12S, 2570 nM. Besides, the IC50 at KRas^G12V came to 2040 nM; on KRas^G12D, 4650 nM; at KRas^G13D, 2550 nM. The values for the inhibition at 0.1 µM in assay [2] and in assay [3] were -11% and 5%, respectively.

As for `Cc1c(O)cc(-c2ncc3c(N4C[C@@H]5C[C@H](C4)[C@H](O)C5)nc(OC[C@@]45CCCN4C[C@H](F)C5)nc3c2F)c2ccccc12` [Example 790, (1R,5R,6R)-3-(8-fluoro-2-(((2R,7aS)-2-fluorohexahydro-1H-pyrrolizin-7a-yl)methoxy)-7-(3-hydroxy-4-methylnaphthalen-1-yl)pyrido[4,3-d]pyrimidin-4-yl)-3-azabicyclo[3.2.1]octan-6-ol], the IC50 on KRas^G12C was found to be 9220 nM; on KRas^G12R it was 5650 nM; at KRas^Q61H it was 11000 nM; at KRas^G12A, 8020 nM; on KRas^WT, 10600 nM; at KRas^G12S, 5660 nM. In addition, the IC50 at KRas^G12V is 3740 nM; on KRas^G12D it was 11700 nM; on KRas^G13D, 7770 nM. Moreover, the figures for the inhibition at 0.1 µM in assay [2] and in [3] were 15% and 9%, respectively.

As to `Cc1cc2[nH]nnc2c(-c2ncc3c(N4CCCC5(CNS(=O)(=O)N5)C4)nc(OCC45CCCN4CCC5)nc3c2F)c1C` (stereo not shown) [Example 855, 7-(7-(5,6-dimethyl-1H-benzo[d][1,2,3]triazol-4-yl)-8-fluoro-2-((tetrahydro-1H-pyrrolizin-7a(5H)-yl)methoxy)pyrido[4,3-d]pyrimidin-4-yl)-2-thia-1,3,7-triazaspiro[4.5]decane 2,2-dioxide], the IC50 is 25 nM at KRas^G12C; 31 nM at KRas^G12R; 23 nM at KRas^Q61H; over 10000 nM in assay [2]; 21 nM at KRas^G12A; 26 nM on KRas^WT. The IC50 on KRas^G12S was 18 nM; on KRas^G12V it was 16 nM; at KRas^G12D it was 10 nM; in [3], over 10000 nM; at KRas^G13D it was 12 nM.

Values taken from patent publication US20260015350A1, “AZAQUINAZOLINE PAN-KRAS INHIBITORS” (Mirati Therapeutics, Inc., priority 2022, published 2026).
